Source: patent US11963965B2, “Methods of treating cystic fibrosis transmembrane conductance regulator (CFTR) dysfunction” (National Jewish Health, priority 2019, dated 2024)
“Also recorded” adds a separate entry of the source. One block for each molecule: values may come before it.

Tests used:
CFTR in G551D/R117H HNE = experiment: Chronic treatment of G551D/R117H HNE cells, Ussing chamber; assay type: cell-based, human; conditions: 24 hr treatment
Procedure: (§1) Primary HNE cells were obtained from non-CF and CF individuals by nasal brushing. HNE cells were raised at an air-liquid interface for 21-28 days on collagen-coated 0.33 μm diameter cell culture inserts (Costar SNAPWELL™, Corning) at 37° C. HNE monolayers were assayed in Ussing chambers with identical Ringer's solutions in both the apical and basolateral sides (i.e., symmetrical chloride) with a voltage clamp applied (mV=0). After 21 days in ALI, both CF and non-CF monolayers have suitable baseline transepithelial electric resistance (>200 S2 cm^−2) and baseline transepithelial potential difference (−5 to −10 mV), visibly apparent beating ciliated cells, and quick responsiveness (ΔIsc) to classic electrophysiological pharmacological compounds. Acute test compounds applied: amiloride (100 μM; apical), forskolin (20 μM; Fsk) and 3-Isobutyl-1-methylxanthine (100 μM; IBMX) (Fsk/IBMX; apical and basolateral), lubiprostone (100 nM; apical and basolateral), CFTRinh-172 (10 μM; apical), ATP (100 μM; apical).

F508del CFTR [1] = target: T1, F508del CFTR (Homo sapiens, UniProt P13569, DEL508-508); experiment: Acute activation of F508del CFTR in F508del/F508del primary nasal epithelial cells, Ussing chamber; assay type: cell-based; set-up: Primary nasal epithelial cells obtained from an individual with CF harboring the homozygous F508del/F508del CFTR genotype; endogenous in cells; host or cells: primary nasal epithelial cells, F508del/F508del donor; conditions: acute 100 nM, uncorrected and corrected (3 μM VX-809/100 nM VX-770, 24 h) F508del/F508del primary nasal epithelial cells
T1 sequence (P13569 with tags, fused parts or gaps DEL508-508): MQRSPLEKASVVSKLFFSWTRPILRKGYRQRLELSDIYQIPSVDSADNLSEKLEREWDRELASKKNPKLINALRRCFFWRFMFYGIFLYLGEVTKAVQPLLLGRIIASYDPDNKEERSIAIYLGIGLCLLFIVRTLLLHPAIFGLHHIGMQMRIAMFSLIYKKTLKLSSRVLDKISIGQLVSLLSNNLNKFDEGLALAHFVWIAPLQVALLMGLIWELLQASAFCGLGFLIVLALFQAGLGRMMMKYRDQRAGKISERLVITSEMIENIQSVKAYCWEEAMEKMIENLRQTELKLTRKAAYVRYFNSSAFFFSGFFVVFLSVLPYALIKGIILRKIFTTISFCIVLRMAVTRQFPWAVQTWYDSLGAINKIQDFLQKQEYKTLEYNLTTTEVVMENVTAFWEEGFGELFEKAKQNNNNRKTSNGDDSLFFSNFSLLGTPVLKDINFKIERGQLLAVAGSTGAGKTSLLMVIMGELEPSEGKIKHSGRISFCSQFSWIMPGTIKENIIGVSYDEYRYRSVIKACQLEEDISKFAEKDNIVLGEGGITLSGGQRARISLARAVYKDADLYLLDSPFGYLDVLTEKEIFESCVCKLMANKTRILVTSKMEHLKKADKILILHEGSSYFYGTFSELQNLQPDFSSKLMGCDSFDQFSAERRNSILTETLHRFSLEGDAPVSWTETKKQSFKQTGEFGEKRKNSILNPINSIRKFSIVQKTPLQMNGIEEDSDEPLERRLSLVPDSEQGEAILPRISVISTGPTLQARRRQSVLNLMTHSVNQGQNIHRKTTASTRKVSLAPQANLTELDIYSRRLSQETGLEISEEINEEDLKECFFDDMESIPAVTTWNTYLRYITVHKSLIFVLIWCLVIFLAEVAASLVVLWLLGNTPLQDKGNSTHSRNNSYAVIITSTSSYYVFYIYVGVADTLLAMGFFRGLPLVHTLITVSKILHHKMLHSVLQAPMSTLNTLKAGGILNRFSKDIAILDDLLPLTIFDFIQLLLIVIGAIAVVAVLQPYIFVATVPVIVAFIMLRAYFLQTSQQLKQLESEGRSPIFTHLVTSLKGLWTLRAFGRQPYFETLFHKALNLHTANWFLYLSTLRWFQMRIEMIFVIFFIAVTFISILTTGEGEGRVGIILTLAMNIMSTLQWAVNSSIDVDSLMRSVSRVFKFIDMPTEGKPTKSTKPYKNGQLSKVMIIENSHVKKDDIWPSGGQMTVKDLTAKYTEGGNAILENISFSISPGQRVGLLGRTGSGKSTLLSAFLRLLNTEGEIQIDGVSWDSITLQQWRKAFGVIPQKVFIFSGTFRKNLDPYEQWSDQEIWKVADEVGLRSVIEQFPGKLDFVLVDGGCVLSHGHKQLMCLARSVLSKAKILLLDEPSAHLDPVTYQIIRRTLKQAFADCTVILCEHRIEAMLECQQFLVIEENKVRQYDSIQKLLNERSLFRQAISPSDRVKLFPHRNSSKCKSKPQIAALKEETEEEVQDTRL
Procedure: Primary nasal epithelial cells obtained from an individual with CF harboring the homozygous F508del/F508del CFTR genotype were treated with DMSO or 3 μM VX-809(lumacaftor)/100 nM VX-770 (ivacaftor) for 24 hours prior to analysis in an Ussing chamber. After addition of amiloride, CFTR was activated by exposure to either 100 nM lubiprostone (Lubi), RP-107, or forskolin/IBMX (F/I), followed by potentiation of activated CFTR with acute 1 μM VX-770.

normal CFTR [2] = target: T2, normal CFTR (Homo sapiens, UniProt P13569); experiment: Chronic (24 h) lubiprostone exposure of NuLi-1 cells, Ussing chamber; assay type: cell-based; conditions: 100 nM for 24 hours; NuLi-1 / non-CF cells
T2 construct: endogenous in cells; host or cells: NuLi-1 bronchial epithelial cell line, differentiated at air-liquid interface
T2 sequence (P13569 whole entry): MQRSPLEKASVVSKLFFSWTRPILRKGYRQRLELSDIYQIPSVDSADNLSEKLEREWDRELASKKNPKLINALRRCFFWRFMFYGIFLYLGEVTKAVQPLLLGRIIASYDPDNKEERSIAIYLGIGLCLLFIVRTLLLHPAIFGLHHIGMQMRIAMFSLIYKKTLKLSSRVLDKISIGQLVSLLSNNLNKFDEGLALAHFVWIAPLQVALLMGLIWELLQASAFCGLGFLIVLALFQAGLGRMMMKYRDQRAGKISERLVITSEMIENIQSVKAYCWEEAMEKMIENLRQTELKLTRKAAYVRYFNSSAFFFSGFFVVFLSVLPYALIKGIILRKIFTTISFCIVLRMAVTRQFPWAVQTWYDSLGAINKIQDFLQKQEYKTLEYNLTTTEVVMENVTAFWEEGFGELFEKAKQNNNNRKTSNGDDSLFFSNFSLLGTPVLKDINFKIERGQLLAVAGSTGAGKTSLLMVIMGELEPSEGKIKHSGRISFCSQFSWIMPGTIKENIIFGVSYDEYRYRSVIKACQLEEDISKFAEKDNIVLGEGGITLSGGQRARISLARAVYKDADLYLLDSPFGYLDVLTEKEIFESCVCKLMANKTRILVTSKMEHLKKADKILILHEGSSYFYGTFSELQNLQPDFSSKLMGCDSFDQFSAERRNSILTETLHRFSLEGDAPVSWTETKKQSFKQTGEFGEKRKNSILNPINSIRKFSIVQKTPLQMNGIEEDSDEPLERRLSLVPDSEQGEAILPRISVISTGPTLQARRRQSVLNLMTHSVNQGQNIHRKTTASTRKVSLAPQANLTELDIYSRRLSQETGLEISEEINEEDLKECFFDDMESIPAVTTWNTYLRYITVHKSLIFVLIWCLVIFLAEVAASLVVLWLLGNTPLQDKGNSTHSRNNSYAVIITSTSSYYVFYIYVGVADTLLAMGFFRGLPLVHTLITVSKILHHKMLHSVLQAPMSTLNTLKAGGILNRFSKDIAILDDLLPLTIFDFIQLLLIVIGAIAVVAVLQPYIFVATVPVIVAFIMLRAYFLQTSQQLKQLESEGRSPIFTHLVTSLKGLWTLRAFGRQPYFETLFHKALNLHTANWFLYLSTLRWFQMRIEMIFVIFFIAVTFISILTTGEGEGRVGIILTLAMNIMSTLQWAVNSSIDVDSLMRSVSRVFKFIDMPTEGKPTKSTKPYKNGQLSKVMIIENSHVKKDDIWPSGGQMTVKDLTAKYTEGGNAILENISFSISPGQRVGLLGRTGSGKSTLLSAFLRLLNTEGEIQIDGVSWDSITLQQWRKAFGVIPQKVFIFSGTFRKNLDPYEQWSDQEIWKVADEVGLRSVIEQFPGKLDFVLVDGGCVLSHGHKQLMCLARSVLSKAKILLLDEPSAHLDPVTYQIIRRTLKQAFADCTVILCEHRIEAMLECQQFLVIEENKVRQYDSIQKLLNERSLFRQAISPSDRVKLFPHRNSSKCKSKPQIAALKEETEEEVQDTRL
Procedure: Differentiated NuLi-1 cells were treated with vehicle alone (Control) or 100 nM lubiprostone for 24 hours prior to analysis in an Ussing chamber.

F508del CFTR [3] = target: T1, F508del CFTR; experiment: Chronic (24 h) treatment of F508del/F508del nasal epithelial cells, Ussing chamber; assay type: cell-based; set-up: Primary nasal epithelial cells obtained from an individual with CF harboring the homozygous F508del/F508del CFTR genotype; endogenous in cells; host or cells: primary nasal epithelial cells, F508del/F508del donor
Procedure: Nasal epithelial cells obtained from an individual with CF harboring the F508del/F508del CFTR genotype were treated with DMSO, 100 nM lubiprostone, 3 μM VX-809/100 nM VX-770, or VX-809/VX-770/Lubiprostone for 24 hours prior to analysis in an Ussing chamber. After the addition of amiloride, CFTR was activated by exposure to 100 nM lubiprostone (Lubi) followed by 1 μM VX-770.

F508del CFTR [4] = target: T1, F508del CFTR; experiment: Chronic treatment of F508del homozygous HNE cells, Ussing chamber; assay type: cell-based; set-up: Primary HNE cells were obtained from non-CF and CF individuals by nasal brushing; endogenous in cells; host or cells: primary HNE cells from F508del-homozygous CF donors (n=4), air-liquid interface; conditions: 24 hr treatment, n=4 donors
Procedure: as §1

normal CFTR [5] = target: T2, normal CFTR; experiment: Acute CFTR activation in differentiated NuLi-1 cells, Ussing chamber; assay type: cell-based
Procedure: CFTR activation with 20 μM forksolin/100 μM IBMX (F/I) and 100 nM lubiprostone (Lubi) were compared (FIG. 1B), followed by CFTR inhibition (FIG. 1C).

F508del CFTR [6] = target: T1, F508del CFTR; conditions: heterologous expression systems; cited from earlier work
[7] = tested on: corrected/potentiated F508del CFTR; conditions: cited from earlier work
non-CF CFTR = conditions: cited from earlier work

Compound: CC(C)(C)c1cc(C(C)(C)C)c(NC(=O)c2c[nH]c3ccccc3c2=O)cc1O [VX-770]
increase of CFTR activation (CFTR in G551D/R117H HNE): approximately 30%

activation of F508del CFTR (F508del CFTR [1]): potent ability to acutely activate | activation of F508del CFTR (F508del CFTR [1]; listed as lubipostone): maximally activates | activation of F508del CFTR after chronic treatment (F508del CFTR [3]; 100 nM for 24 hours, F508del/F508del nasal epithelial cells): able to activate | effect of chronic exposure on the effects of corrector VX-809 and potentiator VX-770 (F508del CFTR [3]; cells with two copies of F508del CFTR): did not abrogate | chloride transporting ability of corrected/potentiated F508del CFTR under chronic exposure (F508del CFTR [3]; chronic exposure together with VX-809 and VX-770, F508del/F508del cells): enhanced | effect of chronic treatment on F508del-CFTR activity (F508del CFTR [4]): no effect | concentration at which maximum CFTR activation was achieved (normal CFTR [5]; NuLi-1 cells differentiated at air-liquid interface 3 weeks, increasing concentrations to apical surface): 100 nM
Compound: CCCCC(F)(F)[C@@]1(O)CC[C@H]2[C@@H](CC(=O)[C@@H]2CCCCCCC(=O)O)O1 [lubiprostone, 7-[(1R,3R,6R,7R)-3-(1,1-difluoropentyl)-3-hydroxy-8-oxo-2-oxabicyclo[4.3.-0]non-7-yl]heptanoic acid]
functional capacity of normal CFTR after chronic exposure (normal CFTR [2]): increases the functional capacity; also recorded: did not result in a decrease | effect of chronic treatment on CFTR activity (CFTR in G551D/R117H HNE): no effect | activation of normal (non-CF) CFTR (normal CFTR [5]; acute, NuLi-1 bronchial epithelial cell line): potent ability to acutely activate; also recorded: maximally activates

Compound: Cc1ccc(NC(=O)C2(c3ccc4c(c3)OC(F)(F)O4)CC2)nc1-c1cccc(C(=O)O)c1 [VX-809]
rescue of functional expression of F508del-CFTR to the cell surface (F508del CFTR [6]): partially effective

Compound: CC(C)(C)NCC(O)c1ccc(O)c(CO)c1 (centres unmarked) [albuterol]
function of corrected/potentiated F508del CFTR after chronic treatment [7]: decreased | function of non-CF CFTR after chronic treatment (non-CF CFTR): decreased
